Measured values as given in ChEMBL document CHEMBL1201862, “PubChem BioAssay data set” (2004).
Calls of active or inactive are those of the source.

What was measured:
[1] = target: T1, Fatty acid synthase (Homo sapiens, UniProt P49327); assay: inhibition of human FAS-TE enzyme activity – biochemical, endpoint fluorescence intensity, uHTS hits, dose response (AID 624327); assay type: functional;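 further: fluorescence from hydrolysis of an O-methyl fluorescein acyl ester substrate by the enzyme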
[2] = target: T1, Fatty acid synthase; assay: inhibition of human FAS-TE enzyme activity – biochemical, kinetic fluorescence intensity, dose response (AID 624326); assay type: functional;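 further: rate of fluorescence rise from hydrolysis of a fluorogenic O-methyl fluorescein ester substrate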
[3] = target: Cytochrome P450 2C9 (Homo sapiens, UniProt P11712)
[4] = target: T2, Cytochrome P450 1A2 (Homo sapiens, UniProt P05177);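 further: PubChem cytochrome P450 panel assay, CYP1A2 panel member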
T2 sequence (P05177 whole entry): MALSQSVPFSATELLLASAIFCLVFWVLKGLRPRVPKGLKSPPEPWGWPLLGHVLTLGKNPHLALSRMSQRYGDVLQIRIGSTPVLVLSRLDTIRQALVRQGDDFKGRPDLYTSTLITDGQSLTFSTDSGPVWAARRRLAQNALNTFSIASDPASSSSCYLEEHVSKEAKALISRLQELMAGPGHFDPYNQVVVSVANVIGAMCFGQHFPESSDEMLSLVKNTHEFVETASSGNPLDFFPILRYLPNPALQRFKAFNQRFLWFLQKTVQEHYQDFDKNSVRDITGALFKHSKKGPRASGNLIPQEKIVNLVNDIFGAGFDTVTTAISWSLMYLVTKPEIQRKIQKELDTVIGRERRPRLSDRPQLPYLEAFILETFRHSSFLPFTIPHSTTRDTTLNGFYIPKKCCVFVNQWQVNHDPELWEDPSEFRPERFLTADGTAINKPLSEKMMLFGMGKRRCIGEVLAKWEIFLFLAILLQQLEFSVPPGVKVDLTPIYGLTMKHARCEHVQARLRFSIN

[5] = target: Cytochrome P450 2C19 (Homo sapiens, UniProt P33261); assay: Cytochrome panel assay with activity outcomes. Panel member name: p450-cyp2c19 Compounds with AC50 equal or less than 10 uM are considered active; assay type: functional; details: read-out: AC50
[6] = target: T3, Protein RecA (Mycobacterium tuberculosis, UniProt P9WHJ3); assay: Fluorescence Cell-Free Homogeneous Dose Retest to Identify Inhibitors of RecA-Intein Splicing Activity. [Related pubchem assays (depositor defined):AID2097, AID2223, AID489010, AID492950]; assay type: functional
T3 sequence (P9WHJ3 whole entry): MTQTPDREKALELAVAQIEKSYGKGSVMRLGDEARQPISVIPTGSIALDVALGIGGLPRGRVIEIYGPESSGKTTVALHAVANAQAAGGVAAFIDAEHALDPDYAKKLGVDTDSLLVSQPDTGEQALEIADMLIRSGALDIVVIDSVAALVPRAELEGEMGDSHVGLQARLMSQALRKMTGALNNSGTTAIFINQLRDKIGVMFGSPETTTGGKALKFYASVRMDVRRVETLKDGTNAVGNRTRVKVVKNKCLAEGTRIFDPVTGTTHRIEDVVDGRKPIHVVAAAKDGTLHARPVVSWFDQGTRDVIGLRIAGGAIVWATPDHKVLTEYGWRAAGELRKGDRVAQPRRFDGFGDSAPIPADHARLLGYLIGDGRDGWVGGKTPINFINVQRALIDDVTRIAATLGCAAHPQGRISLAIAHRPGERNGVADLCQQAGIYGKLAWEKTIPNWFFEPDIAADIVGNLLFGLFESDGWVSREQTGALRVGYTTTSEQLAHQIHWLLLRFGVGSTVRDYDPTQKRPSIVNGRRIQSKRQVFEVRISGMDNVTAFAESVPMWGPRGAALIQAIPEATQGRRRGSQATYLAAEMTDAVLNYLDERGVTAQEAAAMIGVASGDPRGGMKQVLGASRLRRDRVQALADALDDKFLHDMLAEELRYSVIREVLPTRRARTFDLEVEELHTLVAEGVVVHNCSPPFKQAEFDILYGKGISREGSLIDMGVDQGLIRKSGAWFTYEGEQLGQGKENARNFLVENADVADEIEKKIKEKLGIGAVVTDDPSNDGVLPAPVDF

[7] = target: T4, Polyadenylate-binding protein 1 (Homo sapiens, UniProt P11940); assay: MLLE domain peptide-binding blockers, IC50 – biochemical, fluorescence polarization, FITC-PAM2 peptide, dose response (AID 602259); assay type: functional; details: read-out: IC50_Mean
[8] = target: T4, Polyadenylate-binding protein 1; assay: MLLE binding blockers, Cy5 peptide tracer – biochemical, fluorescence polarization, Cy5-PAM2 peptide, secondary, miRNA deadenylation inhibitor project, dose response (AID 602260); assay type: functional; details: read-out: IC50_Mean
[9] = loss of viability in HepG2 cells – cell-based, CellTiter-Glo, cherry-picked, cytotoxicity control for Shn3 inhibitor project, dose response (AID 624134); assay type: functional
[10] = reduction of Shn3 3'UTR-driven luciferase in osteoblasts – cell-based, Clone20 osteoblasts, firefly luciferase, cherry-picked, dose response (AID 624132); assay type: functional;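 further: firefly luciferase luminescence from reporter carrying the Shn3 3'UTR in osteoblasts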
[11] = non-specific 3'UTR reporter inhibition in Clone20-Shn3RL – cell-based, Renilla luciferase, cherry-picked, counter-screen for Shn3 inhibitor project, dose response (AID 624133); assay type: functional
[12] = target: Cytochrome P450 3A4 (Homo sapiens, UniProt P08684);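 further: CYP3A4 tested as one member of a cytochrome P450 panel screen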
[13] = target: Genome polyprotein (dengue virus type 2, UniProt P29990); assay: flavivirus cap methylation enzyme inhibition – biochemical, confirmation dose response, primary screen (AID 588689); assay type: functional
[14] = target: T5, Carboxy-terminal domain RNA polymerase II polypeptide A small phosphatase 1 (Homo sapiens, UniProt Q9GZU7); assay: CTDSP1 inhibitors, concentration-response, biochemical, absorbance readout, ultra-high-throughput screen actives (AID 540297); assay type: functional
T5 sequence (Q9GZU7 whole entry): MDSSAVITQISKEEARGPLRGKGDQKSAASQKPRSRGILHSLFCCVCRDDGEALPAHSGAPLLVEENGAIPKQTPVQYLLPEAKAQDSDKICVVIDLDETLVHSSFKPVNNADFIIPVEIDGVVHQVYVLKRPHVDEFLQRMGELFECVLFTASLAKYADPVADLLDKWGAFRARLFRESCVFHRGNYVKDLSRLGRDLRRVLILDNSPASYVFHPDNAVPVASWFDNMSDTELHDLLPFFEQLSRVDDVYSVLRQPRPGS

[15] = P. falciparum Dd2 growth inhibitors, dose response, SYBR Green, cherry-picked samples (AID 1159567); assay type: functional, cell-based
[16] = Luminescence Cell-Based Dose Retest to Confirm Inhibitors of Cancer Stem Cells. [Related pubchem assays (depositor defined):AID2717, AID2721]; assay type: functional; details: Homo sapiens

T4 sequence (P11940 whole entry, the tested form may be a part): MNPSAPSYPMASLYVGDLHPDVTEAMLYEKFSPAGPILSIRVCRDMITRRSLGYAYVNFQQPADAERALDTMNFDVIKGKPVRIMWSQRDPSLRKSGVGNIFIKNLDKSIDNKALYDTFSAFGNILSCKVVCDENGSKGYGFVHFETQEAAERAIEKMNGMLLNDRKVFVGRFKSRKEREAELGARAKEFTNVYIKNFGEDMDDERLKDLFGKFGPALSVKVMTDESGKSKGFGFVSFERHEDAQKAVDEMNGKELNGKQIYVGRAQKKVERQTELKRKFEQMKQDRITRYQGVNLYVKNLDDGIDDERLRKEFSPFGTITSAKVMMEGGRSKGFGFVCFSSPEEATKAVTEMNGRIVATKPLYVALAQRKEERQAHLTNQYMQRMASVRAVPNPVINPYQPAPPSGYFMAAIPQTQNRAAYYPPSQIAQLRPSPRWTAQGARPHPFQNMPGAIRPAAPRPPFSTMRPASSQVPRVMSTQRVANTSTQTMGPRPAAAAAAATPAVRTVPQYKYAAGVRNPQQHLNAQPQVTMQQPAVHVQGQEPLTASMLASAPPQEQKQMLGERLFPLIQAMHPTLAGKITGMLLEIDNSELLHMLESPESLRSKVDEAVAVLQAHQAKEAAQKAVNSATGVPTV
Chain of Cytochrome P450 2C9 (P11712 whole entry): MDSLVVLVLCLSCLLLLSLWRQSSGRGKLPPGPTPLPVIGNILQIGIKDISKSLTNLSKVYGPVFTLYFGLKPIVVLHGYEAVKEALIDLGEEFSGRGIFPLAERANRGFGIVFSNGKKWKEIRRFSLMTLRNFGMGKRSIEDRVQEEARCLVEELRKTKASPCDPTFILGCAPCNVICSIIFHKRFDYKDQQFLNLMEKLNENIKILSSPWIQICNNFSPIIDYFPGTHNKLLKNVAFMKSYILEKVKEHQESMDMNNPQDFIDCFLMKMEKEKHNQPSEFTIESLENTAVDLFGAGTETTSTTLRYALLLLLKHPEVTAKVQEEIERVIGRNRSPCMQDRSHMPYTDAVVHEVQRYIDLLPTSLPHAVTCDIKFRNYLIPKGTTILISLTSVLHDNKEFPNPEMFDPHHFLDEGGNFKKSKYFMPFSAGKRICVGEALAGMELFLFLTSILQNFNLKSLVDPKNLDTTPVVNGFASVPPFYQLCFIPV
T1 sequence (P49327 whole entry): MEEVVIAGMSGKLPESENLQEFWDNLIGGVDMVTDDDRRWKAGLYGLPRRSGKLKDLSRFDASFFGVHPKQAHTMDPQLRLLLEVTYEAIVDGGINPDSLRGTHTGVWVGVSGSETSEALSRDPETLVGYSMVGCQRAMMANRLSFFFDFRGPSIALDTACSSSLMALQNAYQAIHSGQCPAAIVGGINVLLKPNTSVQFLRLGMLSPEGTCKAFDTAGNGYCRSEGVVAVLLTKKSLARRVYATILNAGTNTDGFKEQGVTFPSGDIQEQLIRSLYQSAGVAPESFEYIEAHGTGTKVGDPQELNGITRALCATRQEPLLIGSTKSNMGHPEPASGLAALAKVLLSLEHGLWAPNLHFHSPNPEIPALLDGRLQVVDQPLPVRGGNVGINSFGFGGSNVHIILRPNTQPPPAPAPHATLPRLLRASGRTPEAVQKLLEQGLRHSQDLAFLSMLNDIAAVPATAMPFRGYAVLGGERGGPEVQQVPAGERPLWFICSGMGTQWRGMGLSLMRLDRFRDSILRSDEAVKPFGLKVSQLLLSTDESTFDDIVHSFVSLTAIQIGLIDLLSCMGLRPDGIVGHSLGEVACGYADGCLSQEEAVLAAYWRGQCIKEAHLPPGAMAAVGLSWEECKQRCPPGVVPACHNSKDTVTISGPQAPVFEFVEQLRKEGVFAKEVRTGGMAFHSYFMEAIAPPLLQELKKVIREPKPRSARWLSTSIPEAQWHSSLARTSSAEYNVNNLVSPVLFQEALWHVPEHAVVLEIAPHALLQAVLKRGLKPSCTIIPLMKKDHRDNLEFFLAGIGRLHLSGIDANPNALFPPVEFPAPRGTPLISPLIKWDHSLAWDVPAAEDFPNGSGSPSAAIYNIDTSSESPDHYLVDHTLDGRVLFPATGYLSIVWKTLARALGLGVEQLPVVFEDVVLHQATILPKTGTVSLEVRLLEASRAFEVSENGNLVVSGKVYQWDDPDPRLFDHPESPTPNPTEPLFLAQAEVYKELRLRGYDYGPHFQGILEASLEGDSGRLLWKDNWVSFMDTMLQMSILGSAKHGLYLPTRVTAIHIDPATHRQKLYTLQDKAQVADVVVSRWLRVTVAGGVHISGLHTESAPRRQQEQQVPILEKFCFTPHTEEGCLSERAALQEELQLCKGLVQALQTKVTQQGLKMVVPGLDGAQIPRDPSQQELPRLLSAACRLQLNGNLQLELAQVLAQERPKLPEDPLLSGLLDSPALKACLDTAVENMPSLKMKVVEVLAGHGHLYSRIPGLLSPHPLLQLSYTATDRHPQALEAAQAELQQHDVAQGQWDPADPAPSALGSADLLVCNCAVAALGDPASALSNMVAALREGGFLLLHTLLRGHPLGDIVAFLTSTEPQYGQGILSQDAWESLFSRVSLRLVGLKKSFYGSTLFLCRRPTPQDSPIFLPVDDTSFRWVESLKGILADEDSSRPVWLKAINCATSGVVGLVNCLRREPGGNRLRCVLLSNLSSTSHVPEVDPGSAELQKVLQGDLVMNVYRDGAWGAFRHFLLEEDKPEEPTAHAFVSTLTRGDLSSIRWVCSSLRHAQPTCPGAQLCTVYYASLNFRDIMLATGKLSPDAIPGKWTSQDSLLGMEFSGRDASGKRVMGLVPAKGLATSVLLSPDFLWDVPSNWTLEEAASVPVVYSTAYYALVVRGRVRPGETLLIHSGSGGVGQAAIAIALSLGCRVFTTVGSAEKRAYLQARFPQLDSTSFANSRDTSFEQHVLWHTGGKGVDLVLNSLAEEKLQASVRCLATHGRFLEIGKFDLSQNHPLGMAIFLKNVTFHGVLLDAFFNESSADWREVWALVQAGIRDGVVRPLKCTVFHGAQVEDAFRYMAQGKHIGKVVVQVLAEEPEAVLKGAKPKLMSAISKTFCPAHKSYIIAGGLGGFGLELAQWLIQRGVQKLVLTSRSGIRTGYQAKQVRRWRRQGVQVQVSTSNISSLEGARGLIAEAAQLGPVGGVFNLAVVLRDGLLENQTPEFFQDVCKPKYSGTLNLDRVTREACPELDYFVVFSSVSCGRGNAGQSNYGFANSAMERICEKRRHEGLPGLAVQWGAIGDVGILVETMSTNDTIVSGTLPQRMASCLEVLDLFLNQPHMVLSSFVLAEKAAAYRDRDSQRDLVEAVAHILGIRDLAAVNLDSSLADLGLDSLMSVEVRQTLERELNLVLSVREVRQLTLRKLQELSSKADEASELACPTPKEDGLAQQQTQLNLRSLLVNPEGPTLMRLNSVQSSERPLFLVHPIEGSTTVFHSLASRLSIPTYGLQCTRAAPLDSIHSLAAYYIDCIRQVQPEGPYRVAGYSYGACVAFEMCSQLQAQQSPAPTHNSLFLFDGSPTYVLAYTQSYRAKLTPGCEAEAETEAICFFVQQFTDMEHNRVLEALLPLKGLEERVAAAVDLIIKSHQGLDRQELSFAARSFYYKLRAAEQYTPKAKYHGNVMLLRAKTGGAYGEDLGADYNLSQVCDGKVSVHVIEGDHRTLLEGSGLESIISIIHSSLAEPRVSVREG
Chain of Cytochrome P450 2C19 (P33261 whole entry): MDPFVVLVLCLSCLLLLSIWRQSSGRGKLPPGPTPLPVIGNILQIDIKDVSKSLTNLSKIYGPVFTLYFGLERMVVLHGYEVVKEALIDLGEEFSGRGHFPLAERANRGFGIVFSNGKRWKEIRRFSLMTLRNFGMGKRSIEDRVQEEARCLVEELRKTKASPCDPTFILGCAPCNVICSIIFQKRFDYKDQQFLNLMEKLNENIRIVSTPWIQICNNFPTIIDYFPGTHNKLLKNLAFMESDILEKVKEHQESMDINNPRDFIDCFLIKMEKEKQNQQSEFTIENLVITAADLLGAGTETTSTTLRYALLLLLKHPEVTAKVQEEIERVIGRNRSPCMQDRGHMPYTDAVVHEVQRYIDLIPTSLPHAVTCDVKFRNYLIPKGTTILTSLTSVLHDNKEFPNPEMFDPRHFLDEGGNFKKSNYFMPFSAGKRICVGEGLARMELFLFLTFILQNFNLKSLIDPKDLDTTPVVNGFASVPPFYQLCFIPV
Chain of Genome polyprotein (P29990 2492-3391 limits assumed): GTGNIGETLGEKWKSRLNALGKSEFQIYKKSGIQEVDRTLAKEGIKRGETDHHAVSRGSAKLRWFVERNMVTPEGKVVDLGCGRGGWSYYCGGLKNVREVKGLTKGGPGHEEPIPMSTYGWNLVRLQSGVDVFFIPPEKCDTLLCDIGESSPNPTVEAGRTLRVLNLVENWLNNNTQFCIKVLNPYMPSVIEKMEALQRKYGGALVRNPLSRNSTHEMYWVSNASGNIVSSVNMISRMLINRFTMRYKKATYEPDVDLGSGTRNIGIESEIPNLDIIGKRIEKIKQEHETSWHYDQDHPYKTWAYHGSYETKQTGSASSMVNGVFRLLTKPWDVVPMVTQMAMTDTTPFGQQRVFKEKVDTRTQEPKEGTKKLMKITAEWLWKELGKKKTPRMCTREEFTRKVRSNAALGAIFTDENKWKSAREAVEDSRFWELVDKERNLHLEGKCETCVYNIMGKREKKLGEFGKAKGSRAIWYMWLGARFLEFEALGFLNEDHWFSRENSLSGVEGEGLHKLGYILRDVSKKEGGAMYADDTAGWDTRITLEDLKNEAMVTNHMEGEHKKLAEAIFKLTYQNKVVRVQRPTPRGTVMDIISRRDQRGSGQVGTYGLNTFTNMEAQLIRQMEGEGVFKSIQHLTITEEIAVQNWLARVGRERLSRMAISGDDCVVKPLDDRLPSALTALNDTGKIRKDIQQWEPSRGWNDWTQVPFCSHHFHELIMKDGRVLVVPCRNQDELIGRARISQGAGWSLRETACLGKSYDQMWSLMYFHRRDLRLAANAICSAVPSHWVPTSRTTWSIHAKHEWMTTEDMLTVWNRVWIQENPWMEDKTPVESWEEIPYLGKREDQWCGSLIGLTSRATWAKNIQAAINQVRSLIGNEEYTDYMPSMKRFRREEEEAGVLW

## NP(=O)(Oc1ccccc1Cl)Oc1ccccc1Cl
[1]
  IC50: 5.09 µM (active)
[2]
  IC50: 8.31 µM (active)

## Cc1cc(C)cc(-n2nnnc2SCC(=O)Nc2nc(-c3ccc(F)cc3)cs2)c1
[3]
  AC50: inconclusive
[4]
  AC50: 3.16 µM (inconclusive)
[5]
  AC50: 5.01 µM (inconclusive)

## O=C(O)CC(NC(=O)CC(c1ccccc1)c1ccccc1)c1cccc([N+](=O)[O-])c1 (stereo not drawn)
[1]
  IC50: 7.88 µM (active)
[2]
  IC50: 9.88 µM (active)

## Cc1sc(NC(=O)CCl)c(C(=O)c2ccccc2)c1C
[6]
  EC50: 3.55 µM (active)
[7]
  IC50: > 66 µM (inactive)
[8]
  IC50: > 66 µM (inactive)

## CN(C)Cc1ccccc1-c1cc(NC2CC2)ncn1
[3]
  AC50: inconclusive

## c1ccc(CN=C(NCc2ccccc2)NCc2ccccc2)cc1
[9]
  AC50: 21.9 µM (active)
[10]
  AC50: 1.79 µM (active)
[11]
  AC50: 2.06 µM (active)

## COc1ccc(S(=O)(=O)N2CCC(C(=O)NCC3CCCO3)CC2)cc1C (stereo not drawn)
[3]
  AC50: inconclusive
[12]
  AC50: 15.8 µM (inconclusive)

## Cc1cc(O)c2c(c1)C(=O)[C@@]13Oc4c5c(c(O)c6c(O)cc(C)cc46)C(=O)C[C@H](O)[C@H]5[C@@H]1[C@@H](O)CC(=O)C3=C2O
[13]
  IC50: 16.7 µM (active)

## CC(C)c1ccc(NC(=O)Nc2nc(C(N)CCc3ccccc3)cs2)cc1 (stereo not drawn)
[9]
  AC50: 10.6 µM (active)
[10]
  AC50: 5.36 µM (active)
[11]
  AC50: 10.3 µM (active)

## O=C(Nc1ccccc1[N+](=O)[O-])OCC=Cc1ccccc1
[1]
  IC50: 8.17 µM (active)
[2]
  IC50: 6.3 µM (active)

## Cc1[nH]n(C(N)=S)c(=O)c1/N=N/c1ccc(S(=O)(=O)N2CCCC2)cc1
[7]
  IC50: > 66 µM (inactive)
[8]
  IC50: > 66 µM (inactive)

## COC(=O)c1ccc(/C=N/NC(=O)c2cccc(F)c2)cc1
[14]
  IC50: 11.4 µM (active)

## COc1ccc(CN(C)C[C@@H]2Oc3c(NC(=O)c4ccc(-c5nccs5)cc4)cccc3C(=O)N([C@@H](C)CO)C[C@H]2C)cc1
[15]
  AC50: 3.25 µM (active)

## COc1cccc(-c2ccc3c(c2)[C@@H]2[C@@H](CCN2C(=O)C2CCCC2)[C@H](CO)N3)c1
[15]
  AC50: 4.88 µM (active)

## CO[C@@H]1CN(C)C(=O)c2ccc(NC(=O)C3CC3)cc2OC[C@@H](C)N(Cc2ccccc2)C[C@H]1C
[15]
  AC50: 3.33 µM (active)

## COc1cccc(NC(=O)N2[C@@H](CO)[C@@H](c3ccccc3)[C@@H]2CNC(C)C)c1
[15]
  AC50: 5.06 µM (active)

## COCC(=O)N1CCC2(CC1)CN(Cc1cccc(OC)c1)[C@@H](CO)c1[nH]c3cc(OC)ccc3c12
[15]
  AC50: 7.42 µM (active)

## CC(C)c1ccc2c(c1)c(SC(C)(C)C)c(CC(C)(C)C(=O)O)n2Cc1ccc(Cl)cc1
[16]
  AC50: 1.58 µM (active)
[1]
  IC50: 10.1 µM (active)
[2]
  IC50: 8.48 µM (active)
